Source: patent US20210156844A1, “TMEM16A Modulation for Diagnostic or Therapeutic Use in Pulmonary Hypertension (PH)” (Bayer Aktiengesellschaft, priority 2017, published 2021)

Key:
PASMC = test: Membrane potential (Em) measurement, current clamp, primary PASMC; type: cell-based, human; details: BBR 30 μM, T16Ainh-A01 10 μM
Description: PASMC were grown on glass coverslips and serum starved for 24-48 hours. The coverslips were perfused with a bath solution composed of (in mM) NaCl 141, KCl 4.7, HEPES 10, glucose 10, CaCl2 1.8, MgCl2 1.2, pH 7.4 (NaOH) at room temperature. Micropipettes were pulled of borosilicate glass capillaries (GC150F-10, Harvard Apparatus Ltd, Edenbridge, Kent, UK) with a P-2000 electrode puller (Sutter Instruments, Novato Ca, USA), and fire polished using a micro-forge (MF-830, Narishige, Tokyo, Japan) to give a final resistance of 3-5 MΩ when filled with the pipette solution (composition in mM: NaCl 10, KCl 125, K2ATP 5, HEPES 10, EGTA 5, MgCl2 4, pH set to 7.2 with KOH). Em was measured with a HEKA EPC10 patch clamp amplifier (Dr. Schulze GmbH, Lambrecht, Germany) in the current clamp mode as described by others (Mason, M J, et al., Biophys. J. (2005) 88, 739-750; Perkins, KL, J. Neurosci. Methods (2006) 154, 1-18).
The liquid junction potential was calculated with the Clampex 10.0 software (Molecular Devices, Sunnyvale Calif., USA) and an online correction was made for each recording. Both at baseline and during perfusion with 30 μM benzbromarone (BBR, Sigma, St Louis Mo., USA) or 10 μM T16Ainh-A01 (Tocris, Bristol, UK), only those recordings in which (1) the Em was constant for at least 3 minutes, and (2) the seal resistance was constantly high (>5 GΩ) were used for the analyses.
The HEK-293 cells were transfected overnight either with the CLCA1 gene containing or with the empty plasmid, using the Effectene transfection reagent kit (Qiagen) and DMEM F-12 complete medium. On the next day, the medium was changed to serum-free SMC Medium. The resulting conditioned media were collected 24 hours later and applied on the PASMC of healthy donors. After 24 hours of incubation, the Em of the PASMC was measured as described above. To confirm the presence of CLCA1 in the conditioned medium, 20 μL of conditioned medium as well as control medium (collected from cells transfected with the empty plasmide) were analyzed with western blot as described above, using a CLCA1 antibody (ab108851, Abcam).

hypoxia-exposed mice = test: Acute hemodynamic effects of benzbromarone in hypoxia-exposed mice; type: in vivo, mouse; details: single i.v. bolus of 300 μM
Description: The experimental protocol is depicted in FIG. 12A. Male C57BL/6J mice (Charles River) at the age of 10 weeks were either placed into a hypoxic chamber (FiO2=0.1, n=16) for 4 weeks, or kept at normoxic conditions (control group, FiO2=0.21, n=8). According to the reports of Fagan et al. (Fagan, K A, et al. Am. J. Physiol. Lung Cell. Mol. Physiol. (2004) 287, L656-664) and Tuscherer et al. (Tuchscherer, H A, et al., J. Biomech. (2007) 40, 993-1001), a significant increase in the right ventricular systolic pressure (RVSP) and PA muscularization can be observed already after 14 days of hypoxia exposure. Therefore, mice subjected to hypoxia were randomized into two groups at the end of the second week. […]
In mice, in vivo hemodynamics was performed under constant inhalation of 2% isoflurane/oxygen, using the closed chest technique through a small incision on the submandibular area. Body temperature was monitored and maintained at 37±1° C. A limb-lead ECG was recorded and the heart rate was kept constant to avoid changes in the sympathetic tone during the experiment. The right ventricle (RV) was catheterized via the right jugular vein using a 1.4 F Millar catheter (SPR-671, Millar, Houston Tex., USA) and right ventricular systolic pressure (RVSP) was measured continuously. […]

[1] = system: patients with severe IPAH; test: Hemodynamic effect of a single oral dose of benzbromarone in IPAH patients; type: in vivo, human; details: 200 mg orally
Description: All patients provided a written informed consent to participate in the study. Examinations were performed by the same experienced team. For the right heart catheterizations, a 7F quadriple-lumen, balloon-tipped, flow-directed Swan-Ganz catheter (Baxter, Deerfield, Ill.) was introduced using the transjugular approach. Hemodynamic measurements included systolic, diastolic and mean pulmonary arterial pressure, pulmonary arterial wedge pressure, right atrial pressure, and cardiac output measured by the thermodilution technique and calculated using an analog computer system. Pulmonary vascular resistance was derived from the difference of mean pulmonary arterial pressure and pulmonary arterial wedge pressure divided by cardiac output. Cardiac index was determined as the ratio of cardiac output to body surface area. All measurements were performed in the supine position, pressure values were continuously recorded and averaged over several respiratory cycles during spontaneous breathing. […] Partial pressure of oxygen and oxygen saturation of arterialized ear lobe capillary blood and pulmonary arterial blood were determined with an ABL 800 Flex (Radiometer; Copenhagen, Denmark) blood gas analyzer. Systemic blood pressure was measured by a sphygmomanometer.

human PASMC = test: PASMC proliferation in vitro, [3H]-thymidine incorporation; type: cell-based; details: benzbromarone 30 μM; PDGF-BB 10 ng/ml; human donor PASMC
Description: Human PASMC were seeded on 96-well plates. Cells were serum-starved for 12 hours, then underwent a 30 min pre-treatment with benzbromarone (30 μM) or vehicle. After the pre-treatment, serum-free SMC Medium containing PDGF-BB (10 ng/ml, Sigma) and benzbromarone was applied. The proliferation was determined by [^3H]-thymidine incorporation (BIOTREND Chemikalien GmbH, Cologne, Germany) as an index of DNA synthesis, and detected with a scintillation counter (Wallac 1450 MicroBeta TriLux Liquid Scintillation Counter & Luminometer, PerkinElmer, Waltham Mass., USA). Each independent experiment was performed in five replicates using PASMC isolated from six different donor lungs.
In experiments using TMEM16A silencing, cells were first seeded on 6-well plates and transfected with TMEM16A siRNA or control non-silencing RNA as described above. Cells were re-seeded into 96-well plates 24 hours after transfection, starved for 12 hours, then the induction and measurement of proliferation was performed as detailed above.

[2] = after 120 min, 10 patients, no placebo group

For `CCc1oc2ccccc2c1C(=O)c1cc(Br)c(O)c(Br)c1` [benzbromarone, (2-Ethyl-3-benzofuranyl)-(3,5-dibrom-4-hydroxyphenyl)ketone], the “reversal of the Em of IPAH-PASMC to the levels of PASMC isolated from healthy donors” value (PASMC; PASMC of IPAH patients) was “completely”, the “effect on Em of PASMC of donors” value (PASMC; PASMC of healthy donors) was “no effect” and the RVSP (hypoxia-exposed mice; mice exposed to 4 weeks of hypoxia) was “significant decrease”. For the same compound, the “RVSP in the control animals” value (hypoxia-exposed mice; normoxia control mice) was “without affecting”, the “further changes in the pulmonary or systemic hemodynamics” value [1] was “no further changes” and the PVR [1, 2] was “slight increase”. For the same compound, the mPAP [1, 2] was “slight increase”, the clinical adverse effects ([1]; throughout the study) was “No clinical adverse effects” and the “PDGF-BB induced PASMC proliferation” value (human PASMC) was “decrease”.
